Values of other authors, collected in patent US7785578B2, “Non-invasive ocular drug delivery” (Aciont, Inc., priority 2002, dated 2010).

Settings: following a 5 mg peribulbar injection; comparable to a high oral dose (approximately 7.5 mg)

- systemic levels in plasma: 60 ng/mL
Compound: C[C@@H]1C[C@H]2[C@@H]3CCC4=CC(=O)C=C[C@]4(C)[C@@]3(F)[C@@H](O)C[C@]2(C)[C@@]1(O)C(=O)CO [dexamethasone]
